Measurements taken from US9278069B2, “Nanoclusters compositions and methods” (UNIVERSITY OF KANSAS, priority 2005, dated 2016).

What was measured:
[1] = Dissolution of insulin particles in PBS (pH 7.4); assay type: physicochemical; conditions: PBS pH 7.4, 37 °C, FIG. 38
Method: Approximately 6 mg of each insulin particle sample was suspended in PBS (pH 7.4). The solution was placed in a 100,000 Dalton biotech grade cellulose ester dialysis tube (Spectrum Labs, Rancho Dominiguez, Calif.) and placed in PBS solution to a final volume of 45 mL. All samples were incubated at 37° C. and shaken at 50 rpm on a shaker table. 1 mL aliquots were taken at various time points up to 8 hours from the bulk solution and replaced with 1 mL of fresh PBS. The insulin concentration was measured using a Coomassie Plus colorimetric protein quantification assay (Thermo Fisher Scientific, Waltham, Mass.). A calibration curve was used to correlate the insulin concentration with the measured absorbance, with insulin concentrations ranging between 1 and 25 μg/mL used as the standard. Dissolved mass was calculated from the measured concentration, and was then normalized to the total loaded mass to determine the percent dissolved. All experiments were performed in triplicate. Analysis of variance (ANOVA) was used to determine statistically significant differences between groups (p<0.05). Comparisons among groups were done using a Fisher's F-test.

[2] = Aerodynamic diameter by time-of-flight measurement (Aerosizer LD); assay type: physicochemical; conditions: insulin powders
Method: (§1) The aerodynamic size distributions of the agglomerate powders were measured directly from lyophilized powder by time-of-flight measurement using an Aerosizer LD (Amherst Instruments) equipped with a 700 mm aperture operating at 6 psi.
as §1, with “The particle size of the dispersed nanoparticle agglomerates as well as the resuspended lyophilized powder was measured using a Coulter Multisizer 3. The” for “The”, “μm” for “mm”
The aerodynamic diameters of the lyophilized powders were determined using an Aerosizer LD (Amherst Process Instruments Inc.). Data were collected over ˜70 seconds under high shear force (˜3.4 kPa) using a 700 μm nozzle.
The particle size was determined from the lyophilized powder using particle time-of-flight analysis. The particle mass mean aerodynamic diameter indentified using this analytical method was 1.0±0.1 μm, which is an ideal particle size for accessing the lung periphery.
Aerodynamic size distribution of the lyophilized powder was obtained by analyzing the time of flight measurements from an Aerosizer LD (Amherst Instruments) equipped with a 700 μm and operating 4 psi. […]

[3] = Cascade impaction of paclitaxel nanoparticle agglomerates (Tisch Ambient Cascade Impactor); assay type: physicochemical
Method: Aerodynamic characteristics of selected nanoparticle agglomerates were studied in vitro using a Tisch Ambient Cascade Impactor (Tisch Environmental, Inc., Ohio). The study was carried out by applying ˜20 mg powder manually into the orifice of the instrument at an air flow rate of ˜30 L/min. Cut-off particle aerodynamic diameters for each stage of the impactor were: pre-separator ([…]), stage 0 ([…]), stage 1 (5.8 mm), stage 2 (4.7 mm), stage 3 (3.3 mm), stage 4 (2.1 mm), stage 5 (1.1 mm), stage 6 (0.7 mm), stage 7 (0.4 mm) and filter (0 mm). Nanoparticle agglomerates deposited on each stage of the impactor were determined by measuring the difference in weight of filters placed on the stages. The mass median aerodynamic diameter, MMAD, and geometric standard deviation, GSD, were obtained by a linear fit of the cumulative percent less-than the particle size range by weight plotted on a probability scale as a function of the logarithm of the effective cut-off diameter.

A549 cells = test: Cytotoxicity of budesonide formulations, CellTiter 96 MTS assay; assay type: cell-based; conditions: up to 5 mg/mL, end of 12 hours
Method: In this experiment, 8×10^4 A549 cells/well were seeded in 96-well microtiter plates. At the end of the incubation period (12 h), […] of MTS reagent solution was added to each well and incubated for 3 hours at 37° C. The absorbance was measured at 490 nm using a microtiter plate reader (SpectraMax, M25, Molecular Devices Corp., CA). The percentage of viable cells with all tested concentrations was calculated relative to untreated cells.

[4] = almost all organic solvent; cited from earlier work
Solubility = assay type: physicochemical
[5] = Cascade impaction of diatrizoic acid dry powder and nebulized suspension; assay type: physicochemical; conditions: flow rate ~30 L/min
Method: FDA requires characterization of aerosols using cascade impaction, which determines aerosol particle size; indicative of the probable deposition site in the lung. The nanoparticle agglomerate formulation described above was studied using a Tisch Ambient Cascade Impactor. The study was carried out by applying ˜20 mg powder manually into the orifice of the instrument at an air flow rate of […]. Alternatively, the dry powders were suspended in water and applied into the cascade impactor through a nebulizer equipped with an LC Star atomizer. […] Cut-off particle aerodynamic diameters at 30 L/min for each stage of the impactor were: pre-separator (10.00 μm), stage 0 (9.00 μm), stage 1 (5.8 μm), stage 2 (4.7 μm), stage 3 (3.3 μm), stage 4 (2.1 μm), stage 5 (1.1 μm), stage 6 (0.7 μm), stage 7 (0.4 μm) and filter (0 μm). Diatrizoic acid nanoparticle agglomerates deposited on each stage of the impactor were determined by measuring the difference in weight of filters placed on the stages. The percent emitted fraction (% EF) and fine particle fractions of the total dose (FPFTD) were then calculated. In addition, the mass median aerodynamic diameter, MMAD, and geometric standard deviation, GSD, were obtained by a linear fit of the cumulative percent less-than the particle size range by weight plotted on a probability scale as a function of the logarithm of the effective cut-off diameter.

[6] = Dispersion stability of budesonide in model propellant HPFP; assay type: physicochemical; conditions: dispersed in HPFP
Method: A trial run for determining the feasibility of budesonide nanoclusters as Metered Dose Inhaler formulations was performed. Budesonide nanoclusters and pure budesonide (milled) were dispersed in model propellant HPFP (2H, 3H perfluoropentane) and their dispersion stability was analyzed. HPFP has similar physico-chemical properties to MDI propellants such as […]. Previous literature studies indicate that dispersion stability of therapeutic molecules is similar in both HPFP and HFA227ea.

With “Unprocessed: Lyophilized insulin powder from bovine pancreas (0.5% zinc content)” the insulin dissolution behaviour [1] was “follows Higuchi dissolution kinetics” and the daero [2] was 4.117 ± 1.852 μm.

For `CC(=O)O[C@H]1C(=O)[C@@]2(C)[C@H]([C@H](OC(=O)c3ccccc3)[C@]3(O)C[C@H](OC(=O)[C@H](O)[C@@H](NC(=O)c4ccccc4)c4ccccc4)C(C)=C1C3(C)C)[C@]1(OC(C)=O)CO[C@@H]1C[C@@H]2O` [Pure paclitaxel powder, Paclitaxel], the “GSD (geometric standard deviation)” value ([3]; cascade impactor, ~30 L/min) was 2.2 ± 0.03, the “MMAD (mass median aerodynamic diameter)” value ([3]; cascade impactor, ~30 L/min) was 0.08 ± 0.02 and the “% RF (percent respirable fraction) <3.3” value ([3]; flow rate ~30 L/min) was 0%. For the same molecule, the “% RF (percent respirable fraction) <5.7” value ([3]; flow rate ~30 L/min) was 0.39 ± 0.3% and the “% EF (percent emitted fraction)” value ([3]; lyophilized NA, flow rate ~30 L/min) was 68.3 ± 6.1%.

In the case of `CCCC1O[C@@H]2C[C@H]3[C@@H]4CCC5=CC(=O)C=C[C@]5(C)[C@H]4[C@@H](O)C[C@]3(C)[C@]2(C(=O)CO)O1` (some centres unmarked) [Stock budesonide, Budesonide], the cytotoxicity (A549 cells) is reported as “did not show any significant cytotoxicity”.

In the case of `CO[C@H]1/C=C/O[C@@]2(C)Oc3c(C)c(O)c4c(O)c(c(/C=N/N5CCN(C)CC5)c(O)c4c3C2=O)NC(=O)/C(C)=C\C=C\[C@H](C)[C@H](O)[C@@H](C)[C@@H](O)[C@@H](C)[C@H](OC(C)=O)[C@@H]1C` [Rifampicin], the “solubility in organic solvent” value [4] is listed as “freely soluble”.

In the case of `[H]/N=C(/N)N[C@H]1[C@H](O)[C@@H](O)[C@H](O[C@@H]2O[C@@H](C)[C@](O)(C=O)[C@H]2O[C@@H]2O[C@@H](CO)[C@H](O)[C@@H](O)[C@@H]2NC)[C@@H](N/C(N)=N\[H])[C@@H]1O` [streptomycin, Streptomycin], the “solubility in acetone and ethanol” value (Solubility) is reported as “poorly soluble” and the solubility in water (Solubility) is reported as “freely water soluble”.

In the case of `CC(=O)Nc1c(I)c(NC(C)=O)c(I)c(C(=O)O)c1I` [Diatrizoic acid (suspen.), Diatrizoic acid], the “% EF (percent emitted fraction)” value [5] is reported as 75 ± 5%, the “% FPF (fine particle fraction) <3.3” value [5] is reported as 10 ± 7% and the “% FPF (fine particle fraction) <5.7” value [5] is reported as 33 ± 6%. For the same molecule, the “GSD (geometric standard deviation)” value [5] was 2 ± 0.1 and the “MMAD (mass median aerodynamic diameter obtained from cascade impactor)” value [5] was 7 ± 1.

With `CC(=O)Nc1c(I)c(NC(C)=O)c(I)c(C(=O)O)c1I` [Diatrizoic acid (powder), Diatrizoic acid] the “% EF (percent emitted fraction)” value [5] was 70 ± 1%, the “% FPF (fine particle fraction) <3.3” value [5] was 4 ± 2^ % and the “% FPF (fine particle fraction) <5.7” value [5] was 21 ± 2%. The “GSD (geometric standard deviation)” value [5] was 2 ± 0.1 and the “MMAD (mass median aerodynamic diameter obtained from cascade impactor)” value [5] was 9 ± 0.1.

With `CCCC1O[C@@H]2C[C@H]3[C@@H]4CCC5=CC(=O)C=C[C@]5(C)[C@H]4[C@@H](O)C[C@]3(C)[C@]2(C(=O)CO)O1` (some centres unmarked) [milled budesonide, Budesonide] the “dispersion stability (creaming)” value [6] was “clearly visible layer was seen at 1 hr” and the “dispersion stability (creaming)” value ([6]; listed as jet milled budesonide) was “complete creaming”.
